In brackets after ≈: the same amount, converted by molar mass.

One data set has as its system Enterococcus faecium. The data set can be described thus: Antibacterial activity against Enterococcus faecium assessed as inhibition of bacterial growth by microplate reader analysis. The class given is functional.
In data set [1] the test system is Staphylococcus aureus. Kind of data set: Antibacterial activity against Staphylococcus aureus assessed as inhibition of bacterial growth by microplate reader analysis. Format: functional.
A further data set concerns Klebsiella pneumoniae. Kind of data set: Antibacterial activity against Klebsiella pneumoniae assessed as inhibition of bacterial growth by microplate reader analysis. The class given is functional.
In a further data set the test system is Acinetobacter baumannii. The data set can be described thus: Antibacterial activity against Acinetobacter baumannii assessed as inhibition of bacterial growth by microplate reader analysis. Format: functional.
The test system of data set [2] is Pseudomonas aeruginosa. Kind of data set: Antibacterial activity against Pseudomonas aeruginosa assessed as inhibition of bacterial growth by microplate reader analysis. The class given is functional.
In another data set the test system is Enterobacter sp. The data set can be described thus: Antibacterial activity against Enterobacter sp. assessed as inhibition of bacterial growth by microplate reader analysis. Format: functional.
Data set [3] can be described thus: Hemolytic activity in human erythrocytes assessed as hemolysis incubated for 1 hrs. The class given is toxicity, cell-based, Erythrocyte.
The test system of data set [4] is Staphylococcus aureus. The data set can be described thus: Antibacterial activity against methicillin resistant Staphylococcus aureus MW2 assessed as inhibition of bacterial growth measured after 2 hrs. The class given is functional.
Data set [5] in a line: Cytotoxicity against human hepatocytes assessed as reduction in cell growth by WST-1 assay. Format: toxicity, cell-based, Hepatocyte. Conditions: read-out: LC50 (the source's name).
Another data set concerns Streptococcus mutans. The data set can be described thus: Antibacterial activity against wild type planktonic Streptococcus mutans UA159 assessed as inhibition of bacterial growth incubated for 20 to 24 hrs. Conditions: time 20-24 hrs. The class given is functional.
In data set [6] the test system is Staphylococcus aureus. The data set can be described thus: Antibacterial activity against Staphylococcus aureus assessed as inhibition of bacterial growth. The class given is functional.
The subject of data set [7] is Pseudomonas aeruginosa. Kind of data set: Antibacterial activity against Pseudomonas aeruginosa assessed as inhibition of bacterial growth. Format: functional.
In data set [8] the test system is Staphylococcus aureus. Kind of data set: Antimicrobial activity against methicillin resistant Staphylococcus aureus assessed as inhibition of bacterial growth by CLSI protocol based microdilution method. Format: functional.
Data set [9] relates to Staphylococcus aureus. Kind of data set: Antimicrobial activity against methicillin resistant Staphylococcus aureus MW2 BAA-1707 persisters assessed as inhibition of bacterial colonies. Format: functional.
For data set [10], the system named is Pseudomonas aeruginosa. The data set can be described thus: Antibacterial activity against Pseudomonas aeruginosa persistent cells assessed as fold reduction in bacterial cell at 68 ug/ml in the presence of ofloxacin relative to ofloxacin alone. The class given is functional. The note with it: dose 68 µg/ml.
In data set [11] the test system is Staphylococcus aureus. Kind of data set: Antibacterial activity against methicillin resistant Staphylococcus aureus ATCC 33591 assessed as inhibition of bacterial growth incubated for 24 hrs by broth microdilution method. The class given is functional.
In data set [12] the test system is Staphylococcus aureus. Kind of data set: Antibacterial activity against methicillin resistant Staphylococcus aureus R3889 assessed as inhibition of bacterial growth incubated for 24 hrs by broth microdilution method. The class given is functional.
The test system of data set [13] is Staphylococcus aureus. The data set can be described thus: Antibacterial activity against methicillin resistant Staphylococcus aureus R3890 assessed as inhibition of bacterial growth incubated for 24 hrs by broth microdilution method. The class given is functional.
For data set [14], the system named is Pseudomonas aeruginosa. Kind of data set: Antibacterial activity against Pseudomonas aeruginosa persistent cells assessed as fold reduction in bacterial cell in the presence of ofloxacin relative to ofloxacin alone. The class given is functional.
Data set [15] relates to Staphylococcus aureus. The data set can be described thus: Antibacterial activity against Staphylococcus aureus ATCC 9144 assessed as inhibition of bacterial growth incubated for 24 hrs. Format: functional.
Data set [16] relates to Staphylococcus aureus. The data set can be described thus: Antimicrobial activity against vancomycin resistant Staphylococcus aureus assessed as inhibition of bacterial growth by CLSI protocol based microdilution method. Format: functional.

As for `Nc1nc(N)c2c(ccc3c2ccn3Cc2ccc(-c3ccccc3)cc2)n1`, the minimum inhibitory concentration (MIC) with Enterococcus faecium, in the data set on Staphylococcus aureus [1], with Klebsiella pneumoniae, in the data set with Acinetobacter baumannii, in the data set with Pseudomonas aeruginosa [2] and in the data set on Enterobacter sp. was 0.02 µg/mL (≈ 0.0547 µM) throughout.
Take `O=C(O)c1ccc2cc(-c3ccc(O)c(C45CC6CC(CC(C6)C4)C5)c3)ccc2c1` [O-DEMETHYLATED ADAPALENE]: the HC50 at 1 h in [3] stood at 32 µg/mL. For the same compound, the minimum inhibitory concentration (MIC) with Staphylococcus aureus [4] was determined as 1 µg/mL (≈ 2.51 µM). Besides, the CC50 in [5] came to 20 µg/mL (≈ 50.2 µM).
As to `C=CCc1ccc(O)c(-c2ccc(O)c(CC=C)c2)c1` [HONOKIOL], in the data set with Streptococcus mutans, the MIC is 66.6 µg/mL (≈ 250 µM).
With `CCC(C)NCC(O)Cn1c2ccc(Cl)cc2c2cc(Cl)ccc21` (configuration not stated), the MIC with Staphylococcus aureus [6] and in the data set with Pseudomonas aeruginosa [7] was 4.63 µg/mL (≈ 12.7 µM) in each case.
Turning to `CC(C)(C)c1ccc(CCc2ccc(C(C)(C)C)c(O)c2)cc1O`, the MIC with Streptococcus mutans came to 0.65 µg/mL (≈ 1.99 µM).
On to `CC(C)c1ccc(Cn2ccc3c4c(N)nc(NC5CC5)nc4ccc32)cc1`, for which the MIC in the data set with Enterococcus faecium, with Staphylococcus aureus [1], in the data set on Klebsiella pneumoniae, in the data set on Acinetobacter baumannii, with Pseudomonas aeruginosa [2] and in the data set on Enterobacter sp. was 2 µg/mL (≈ 5.38 µM) throughout.
On to `O=C(O)c1c(Sc2ccccc2)c2cc(Cl)ccc2n1Cc1ccc(Cl)cc1`, for which the MIC in the data set with Staphylococcus aureus [8] turned out to be 4 µg/mL (≈ 9.34 µM). Further, in the data set with Staphylococcus aureus [9], the Activity turned out to be 64 µg/mL. In data set [3], the HC50 at 1 h came out at 47 µg/mL.
With `O[C@H](CNCCc1ccc(Cl)cc1Cl)COc1ccccc1`, the “fold change (FC)” value in the data set with Pseudomonas aeruginosa [10] is given as 7200.
Turning to `CCCCCCCCCCN(Cc1cccc2ccccc12)C(=O)[C@@H](N)CCCCN`, the MIC with Staphylococcus aureus [11], in the data set with Staphylococcus aureus [12] and in the data set on Staphylococcus aureus [13] was 4.1 µg/mL (≈ 9.63 µM) in each case.
`O[C@H](CNCc1ccccc1)COc1ccc(Cl)cc1Cl`: the “fold change (FC)” value in the data set on Pseudomonas aeruginosa [14] is more than 2000.
`O=C(O)c1c(Oc2ccc(I)cc2)c2cc(Cl)ccc2n1Cc1ccc(Cl)cc1`: the minimum inhibitory concentration (MIC) in the data set on Staphylococcus aureus [8] stood at 1 µg/mL (≈ 1.86 µM). Further, the Activity in the data set on Staphylococcus aureus [9] was found to be 16 µg/mL. Further, the concentration for 50% haemolysis (HC50) at 1 h in [3] was more than 64 µg/mL.
Take `Oc1c(Cl)cc(Cl)cc1Sc1cc(Cl)cc(Cl)c1O` [BITHIONOL]: the MIC50 in the data set with Staphylococcus aureus [15] came out at 8 µM (≈ 2.85 µg/mL). The minimal inhibitory concentration (MIC) in the data set on Staphylococcus aureus [16] came out at 0.5 µg/mL (≈ 1.4 µM).

The record behind these values is ChEMBL document CHEMBL5241050, “Using membrane perturbing small molecules to target chronic persistent infections” (RSC Med Chem, 2021).
